Data from patent publication US9624279B2, “Method for producing insoluble aggregate of neurodegenerative-disease-related protein” (TOKYO METROPOLITAN INSTITUTE OF MEDICAL SCIENCE, priority 2011, dated 2017).

Tested on: HA-TDP expressing cells
Test: Suppression of insoluble TDP aggregate formation by candidate compounds (Western blot with anti-409/410 antibody, densitometer)
Assay type: cell-based, human
Conditions: 20 μM, ppt fraction after three days, compared with DMSO control as 100%; for suppressing effect against aggregate formation: added 6 hours after introduction of insoluble fraction from the brain of patient
Experimental: Two transfectants of (1) SH-SY5Y cells expressing human α-synuclein (hereinafter referred to as “αS expressing cells” for transfectants and “αS” for the human α-synuclein, respectively) and (2) SH-SY5Y cells expressing HA-tagged TAR DNA binding protein (hereinafter referred to as “HA-TDP expressing cells” for the SH-SY5Y cells and an “HA-TDP” HA-tagged TAR DNA binding protein, respectively) were prepared. In brief, a construct in which a polynucleotide encoding αS or HA-TDP was inserted into pcDNA3 vector were prepared (Ueda. K et al., Proc. Natl. Acad. Sci. U.S.A. 90: 11282 (1993), Ou. S H et al., J Virol. 3584: 394 (1995)). Mixture of the construct (1 μg), X-tremeGENE 9 DNA transfection reagent (Roche Diagnostics K.K.) (3 μL) and the OptiMEM (100 μL) was added to 30% to 50% confluent of the SH-SY5Y cells and incubated over night, then used in the following step of introduction of insoluble fraction.
An amount of sample for introduction per one well of the 6-well plate was added to the cell culture medium of one well, then the cultured cells was incubated for 6 hours. After the incubation, the medium was replaced with a flesh cell culture medium (2 mL) and the cultured cells were incubated for 3 days. Then, the cultured cells were used to perform the analysis by Western blotting and immunocytochemistry. If the cultured cells were not used immediately, the cultured cells were stored at −20° C.
The precipitate obtained in the preparation of TX fraction was suspended in a cell lysis buffer containing 1% N-sodium lauroyl sarcosinate, and incubated at 37° C. for 30 min. After ultrasonication treatment using VP-5S type device (Titech Corporation), the supernatant and precipitate were separated by ultracentrifugation (290,000×g, 20 min, 4° C.), the supernatant was used as Tris buffer soluble fraction containing N-sodium lauroyl sarcosinate (hereinafter referred to as “Sar fraction”). And also, the precipitate was used as insoluble fraction (hereinafter referred to as “ppt fraction”).
TS, TX, Sar and ppt fractions were used in the Western blotting by standard method well known to those skilled in the art. In brief, each fraction was separated by electrophoresis with 13.5% SDS-polyacrylamide gel, respectively. The separated proteins were transferred to a PVDF membrane, reacted with the following primary and secondary antibodies, and detected with an ECL Plus Western Blotting Detection System (GE Healthcare Japan Corporation) and an ImageQuant™ LAS 4000 mini (GE Healthcare Japan Corporation).
The harvest of samples, preparation of insoluble fractions from the brain samples, preparation of sample for introduction including the insoluble fractions, cell culturing, preparation of transfectants, introduction of insoluble fractions into the cultured cells and Western blotting were performed in accordance with the procedures similar to those in the example 3. In this example, the candidate compounds of therapeutic agent of neurodegenerative disease were added at final concentration of 20 μM at 6 hours after introduction of insoluble fraction originated from the brain of patient into HA-TDP expressing cells. […] In three days after the introduction of insoluble fraction from the brain of patient, the ppt fraction of HA-TDP expressing cells was recovered and used in Western blotting, and the amounts of the insoluble fractions were quantified with a densitometer. […]

SMILES	suppressing effect against aggregate formation	aggregate formation suppressed
O=C(O[C@@H]1Cc2c(O)cc(O)cc2O[C@@H]1c1ccc(O)c(O)c1)c1cc(O)c(O)c(O)c1 [epicatechin gallate, (−)-epicatechin gallate]	had the suppressing effect	
O=c1c(O)c(-c2ccc(O)c(O)c2)oc2c(O)c(O)cc(O)c12 [gossypetin]	had the suppressing effect	approximately 40%
O=C(c1cc(O)c(O)c(O)c1)c1ccc(O)c(O)c1O [exifone]	did not have a suppressing effect	
O=c1c(O)c(-c2cc(O)c(O)c(O)c2)oc2cc(O)cc(O)c12 [myricetin]	had the suppressing effect	
